Data reported in EP0575454B1, “USE OF CUCURBITINE FOR THE PREPARATION OF A COSMETIC OR PHARMACEUTICAL, PARTICULARLY DERMATOLOGICAL, ANTIALLERGIC COMPOSITION AND METHOD INVOLVING APPLICATION THEREOF” (PARFUMS CHRISTIAN DIOR, priority 1991, dated 1992).

Key:
[1] = tested on: histidine décarboxylase (HDC); assay: Enzymatic test: colorimetric assay (MBTH/DMAB) of histidine decarboxylase inhibition, initial reaction rates (Michaelis curves); type: biochemical; settings: for vitesse initiale: racemic cucurbitine
Source text: Ce test est basé sur l'action inhibitrice de la cucurbitine sur l'enzyme histidine décarboxylase (HDC) qui transforme l'histidine en histamine, par rapport à celle de la tritoqualine, qui est un inhibiteur connu de l'HDC (voir Carpi C., Maggi G.C. Bull. Soc Ital. Sper. 1968, 44 (6 543-4), et qui est utilisée en thérapeutique comme hypohistaminémiant sous le non de Hypostamine®.
L'activité inhibitrice sur l'HDC peut être aisément réalisée par un dosage colorimétrique sur la base de la réaction chimique suivante :
MBTH = 3-méthyl-2-benzothiazolinone hydrazone DMAB = 3-(diméthylamino)benzoic acid
En pratique, on observe que la formation de la coloration bleue est proportionnelle à la concentration en histidine consommée. On a ainsi pu définir des vitesses initiales de réaction et établir des courbes dites de Mickaelis comme décrit dans Fundamentals of Enzymology, 2nd Ed. Oxford Univ. Press, 1989.
La vitesse initiale est exprimée en variation d'absorbance par minute.
Les résultats obtenus avec diverses concentrations initiales d'histidine, à savoir à 132 nmol, 265 nmol, et 530 nmol, respectivement sans effecteur, avec tritoqualine comme inhibiteur d'HDC connu, et avec la cucurbitine sous forme racémique comme inhibiteur selon l'invention sont répertoriés au tableau II ci-après et font l'objet de la courbe de Mickaelis, objet de la figure 1. Tableau II

enzyme HDC = assay: RIA (radioimmunoassay) of the histamine produced by the HDC enzyme; type: biochemical; settings: for % I (Inhibition) à 5 min / histamine libérée / % I (Inhibition) à 10 min: histidine 16.10^-3 molaire, effector 2.10^-3 molaire; for % I (Inhibition) à 5 min / % I (Inhibition) à 10 min: pH 6,3, 2000 µM; for histamine libérée: phosphate buffer pH 6,3
Source text: On peut également mettre en évidence l'activité anti-histaminique de la cucurbitine par un dosage radioimmunologique (Radio Immuno Assay ou "RIA") de la manière suivante.
Ce dosage a lieu en dosant l'histamine directement produite sous l'action de l'enzyme HDC, par la méthode RIA, bien connue à l'homme de l'art, et notamment décrite dans la notice d'utilisation d'un kit de dosage dénommé HISTAMINE Radioimmunoassay kit (Cat. # 1302) commercialisé par la Société IMMUNOTECH (Marseille-France).
On dose au cours du temps La quantité d'histamine libérée (en nanomoles) pour une concentration de 16.10^-3 molaire d'histidine dans un tampon phosphate à pH 6,3, respectivement sans effecteur, avec la tritoqualine comme effecteur de comparaison et avec de la cucurbitine racémique de synthèse comme agent anti-histaminique selon l'invention. La tritoqualine et la cucurbitine sont utilisées à la concentration de 2.10^-3 molaire.
Les résultats obtenus exprimés en nanomoles […] libérée sont répertoriés au tableau III ci-après et font l'objet de la courbe de la figure 2 où l'on a indiqué en ordonnées le nombre de nanomoles d'histamine libérée et en abscisses le temps exprimé en minute. La courbe sans effecteur est tracée en trait continu, la courbe obtenue avec la tritoqualine est tracée en trait mixte et la courbe obtenue avec la cucurbitine est tracée en pointillés. TABLEAU III

SMILES | vitesse initiale ([1]; Histidine 132 nmol) | vitesse initiale ([1]; Histidine 265 nmol) | vitesse initiale ([1]; Histidine 530 nmol) | inhibiteur d'HDC (comparison in words) ([1]; compared with tritoqualine, Table II and figure 1) | % I (Inhibition) à 5 min (enzyme HDC; 5 min) [%] | histamine libérée (enzyme HDC; 5 min) | % I (Inhibition) à 10 min (enzyme HDC; 10 min) [%] | histamine libérée (enzyme HDC; 10 min) | activité inhibitrice de la formation d'histamine (comparison in words) (enzyme HDC; compared with tritoqualine, after a few minutes)
NC1(C(=O)O)CCNC1 (racemic) [Cucurbitine, acide 3-amine-3-pyrrolidinecarboxylique] | 0,013 variation d'absorbance par minute | 0,0242 variation d'absorbance par minute | 0,042 variation d'absorbance par minute | beaucoup plus puissant que la tritoqualine | 55 | 14,85 nanomoles | 73 | 38,29 nanomoles | nettement plus puissante que la tritoqualine
CCOc1c(N)c2c(c(OCC)c1OCC)C(C1c3c(cc4c(c3OC)OCO4)CCN1C)OC2=O (stereo not shown) [Tritoqualine, tritoqualine, reference compound] | 0,021 variation d'absorbance par minute | 0,0374 variation d'absorbance par minute | 0,0604 variation d'absorbance par minute |  | 49 | 16,48 nanomoles | 65 | 49,27 nanomoles | 
